Measurements from patent US20010046963A1, “Novel use of flavones” (priority 2000, published 2001).

Legend:
COX-2 mRNA = experiment: Semi-quantitative RT-PCR determination of COX-2 mRNA levels in HT-29 cells; format: cell-based; conditions: for COX-2/GAPDH [AUC]: HT-29 cells, 150 μM flavone, n = 4
Method: (§1) HT-29 cells (passage 106) were provided by ATCC and used between passage 150 and 200. Cells were cultured and passaged in RPMI-1640 supplemented with […] and 2 mM glutamine (all from GIBCO, Eggenstein, Germany). Antibiotics added were 100 U/ml penicillin and 100 μg/ml streptomycin (GIBCO). The cultures were maintained in a humidified atmosphere of 95% air and 5% CO2 at 37° C. Cells were passaged at preconfluent densities by the use of a solution containing 0.05% trypsin and 0.5 mM EDTA (GIBCO).
(§2) RNA from HT-29 cells was isolated at the times indicated in table 5 according to the method described by Chomczynski and Sacchi Anal. Biochem. 162 (1987) 156 with slight modifications. Reverse transcription was done with 5 μg of isolated RNA. First strand cDNA synthesis was accomplished with an oligo-(dT)15 primer (MBI Fermentas). Amplification of sequence specific fragments (Taq Polymerase was from Sigma) was performed with 30 cycles (95° C. denaturation for 1 min, 55° C. hybridization for 2 min, 72° C. extensions for 2 min; Personal Cycler, Biometra, Göttingen, Germany). RT-PCR products were separated on a 1% agrose gel and visualized by ethidium bromide. The amount of first strand used to amplify specific sequences was derived from the linear range of amplification. The amplified GAP-DH sequence was used as a constitutively expressed control. The amplivied products were photographed and the intensity of the bands was analyzed by the SigmaGel software. No products were obtained for all genes without reverse transcription […]. A λ-DNA/EcoRI+HindIII marker (MBI Fermentas) was used in all PCR experiments as a size control of the amplified products. Amplified cDNA sequences (primers were custom synthesized by Eurogentec, Seraing, Belgium) were GAP-DH: bp 558-1010; COX-2: bp 1366-1870, NFχB:bp 2832-3401.
(§3) That this effect on gene expression occurred selectively was shown by unaltered mRNA levels of the tumor suppressor p53.
(§4) Semi-quantitative determination of COX-2 and NFχB mRNA levels in HT-29 cells by use of RT-PCR (n=4).

NFχB mRNA = experiment: Semi-quantitative RT-PCR determination of NFχB mRNA levels in HT-29 cells; format: cell-based; conditions: for NFχB/GAPDH [AUC]: 150 μM flavone, n = 4
Method: as §1, §2, §3, §4

SMILES: O=c1cc(-c2ccccc2)oc2ccccc12 [flavone, Flavone]
- COX-2 transcript levels (in words) (COX-2 mRNA; HT-29 cells exposed to flavone for 48 h): diminished in its transcript levels drastically
- COX-2/GAPDH [AUC] (COX-2 mRNA; incubation time 3 h): 0.69 AUC
- COX-2/GAPDH [AUC] (COX-2 mRNA; incubation time 8 h): 0.35 AUC
- NFχB/GAPDH [AUC] (NFχB mRNA; incubation time 3 h): 1.1 AUC
- NFχB/GAPDH [AUC] (NFχB mRNA; incubation time 8 h): 1.7 AUC
- mRNA of NFχB (in words) (NFχB mRNA; flavone treatment): reduced dramatically
